For assay [1], the system named is isolated rat islets. As to the kind of experiment: Glucose-stimulated insulin secretion by perifused islets after cryopreservation. In kind it is cell-based. The protocol:
FIG. 2 graphs glucose stimulation of insulin secretion in islets cryopreserved with different cryoprotectants. After one week of cryopreservation, islets were thawed and cultured overnight before being tested for response to 16.7 mM glucose stimulation. The 16.7 mM glucose stimulated insulin secretion was assessed by normalizing data as percent basal insulin secretion for each group of islets. Data represent mean±SEM.
The present invention is based on the hypothesis that the low molecular weight (MW) compounds, DMSO and glycerol, permeate the cell and interact hydrophobically with intracellular proteins thereby perturbing the cyto-skeletal architecture of frozen cells, and diminishing islet cell integrity and function. […] Using a programmable temperature controller, samples of pre-counted islets were then frozen under liquid nitrogen, in the presence of either 2M DMSO (MW=0.078 kD), 3M glycerol (MW=0.092 kD), 5% polyethylene glycol (PEG, MW=20 kD), or 10% polyvinylpyrrolidone (PVP, MW=40 kD), and stored at −80° C. for 1 week. Following thawing, intact islet recovery was determined by islet counting after Dithizone staining. Islet function was assessed by determination of glucose-stimulated insulin secretion in perifusion experiments with Krebs-Ringer bicarbonate buffer, pH 7.4, containing either basal (3.3 mM) or high (16.7 mM) glucose concentrations. […]

Assay [2] concerns isolated rat islets. As to the kind of experiment: Recovery of intact islets after cryopreservation and thawing (islet counting after Dithizone staining). The format is cell-based. More on the design: key: Severe = +++; Mild = +. The settings on record: 2M DMSO, 3M glycerol, 5% PEG or 10% PVP. The protocol: The present invention is based on the hypothesis that the low molecular weight (MW) compounds, DMSO and glycerol, permeate the cell and interact hydrophobically with intracellular proteins thereby perturbing the cyto-skeletal architecture of frozen cells, and diminishing islet cell integrity and function. Isolated rat islets were cultured overnight (16-24 hr) at 37° C., in RPMI medium supplemented with 10% fetal calf serum and 1% mixture of Penicillin/Streptomycin. Using a programmable temperature controller, samples of pre-counted islets were then frozen under liquid nitrogen, in the presence of either 2M DMSO (MW=0.078 kD), 3M glycerol (MW=0.092 kD), 5% polyethylene glycol (PEG, MW=20 kD), or 10% polyvinylpyrrolidone (PVP, MW=40 kD), and stored at −80° C. for 1 week. Following thawing, intact islet recovery was determined by islet counting after Dithizone staining. Islet function was assessed by determination of glucose-stimulated insulin secretion in perifusion experiments with Krebs-Ringer bicarbonate buffer, pH 7.4, containing either basal (3.3 mM) or high (16.7 mM) glucose concentrations. After thawing samples of frozen islets, the mean±SEM % intact islet recovery was higher with PVP compared to DMSO (82±4.6 versus 62.7±3.1% respectively, p<0.005, n=9). […]

Assay [3] deals with islets. The note with it: DMSO as cryoprotectant, compared to freshly isolated islets; cited from earlier work.

As to `OCC(O)CO` [GLY, glycerol], the “function of cryopreserved islets compared to freshly isolated islets” value in assay [1] was “impaired”. Further, the “Fragment (fragmentation of islets after thawing)” value in assay [2] is listed as “+++”.

Take `C[S+](C)[O-]` [DMSO, Dimethylsulfoxide]: in assay [3], the “loss in the number and function of islets after thawing” value is 30-50%. In addition, the “function of cryopreserved islets compared to freshly isolated islets” value in assay [1] was “impaired”. In addition, the “Fragment (fragmentation of islets after thawing)” value in assay [2] was “+++”.

(Values after patent US20050191282A1, “Method of cryopreserving pancreatic islet cells” (priority 2004, published 2005).)
